Earlier results as cited in US20040087484A1, “Combination of organic compounds” (priority 2003, published 2004).

Tested on: male rats
Conditions: used for the treatment of hypertensive disorder in male rats

CCCCc1nc(Cl)c(CO)n1Cc1ccc(-c2ccccc2-c2nn[nH]n2)cc1 [losartan]
preservation of sexual function: advantage in preservation of sexual function
